Measurements published in publication PMC11941704 (Current Issues in Molecular Biology, 2025).
“And” between values parts separate entries of the source, which are not always exact repeats. Equal entries are not always repeated. Where two headings read alike, the source gives them in different places.

Columns and labels:
[1] = biological target: C. perfringens neuraminidase; type: biochemical, Clostridium perfringens; conditions: for IC50: read-out: IC50 Value C. perfringen Neuraminidase
SARS-CoV-2 main protease [2] = biological target: T1, SARS-CoV-2 main protease (Severe acute respiratory syndrome coronavirus 2, UniProt P0DTD1); assay: biochemical; type: biochemical; conditions: for IC50: IC50 Value SARS-CoV-2 Main Protease
[3] = system: SARS-CoV-2 spike protein–human ACE2 interaction; type: binding, SARS-CoV-2 / human
SARS-CoV-2 main protease [4] = biological target: T1, SARS-CoV-2 main protease; conditions: read-out: IC50 Value SARS-CoV-2 Main Protease; cited from earlier work

Row | Compound | IC50 [1] | Potency Index*, bacterial neuraminidase, compared to std influenza A [1] | Potency Index, bacterial (C. perfringens) neuraminidase [1] | Potency Index, SARS-CoV-2 main protease (SARS-CoV-2 main protease [2]) | inhibition at 100 µg/mL (SARS-CoV-2 main protease [2]) [%] | % Inhibition SARS-CoV-2 Spike Protein–Human ACE2 Interaction [3] | Potency Index, SARS-CoV-2 spike protein [3] | Ratio, SARS-CoV2 spike protein [3] | IC50 (SARS-CoV-2 main protease [2]) [µM] | IC50 (SARS-CoV-2 main protease [4]) [µM] | % Inhibition C. perfringen Neuraminidase [1]
1 | O=c1c(O)c(-c2ccc(O)c(O)c2)oc2cc(O)cc(O)c12 [quercetin, reference compound] | ~11 µM and 11 µM | – | – | – | – | – | – | – | – | – | –
2 | CCCCCc1cc(O)c2c(c1)OC(C)(CCC=C(C)C)C=C2 (centres unmarked) [CBC, cannabichromene] | 56.9 µM | 56.89 | 5.18 | 100 | 75 | 95.25 (± 4.54) % | 4.99 | 1.05 | – | – | –
3 | CCCCCc1cc(O)c(C/C=C(\C)CCC=C(C)C)c(O)c1 [CBG, cannabigerol] | 6.9 µM and 6.92 µM | 6.92 | 0.63 | – | > 80 | 97.60 (± 4.16) % | 2.46 | 1.02 | 5.68 | – | –
4 | C=C(C)C1CCC(C)(O)C2Oc3cc(CCCCC)cc(O)c3C12 (centres unmarked) [CBE, cannabielsoin] | – | – | – | 100 | 80.3 | – | 35.75 | 1.36 | – | – | –
5 | C=C(C)[C@@H]1CCC(C)=C[C@H]1c1c(O)cc(CCCCC)cc1O [CBD, cannabidiol, reference compound] | 4.5 µM and 4.53 µM | 4.53 | 0.41 | 4.43 | – | – | 77.62 | 1.78 | – | 1.86 | –
6 | CCCCCc1cc(O)c2c(c1)OC(C)(C)c1ccc(C)cc1-2 [CBN, cannabinol] | – | 100.00 | 100 | 100 | – | – | 39.18 | 1.39 | – | – | 34.87 (± 3.08) %
7 | CCCCCc1cc(O)c2c(c1)OC(C)(C)[C@@H]1CCC(C)=C[C@@H]21 [THC, tetrahydrocannabinol, reference compound] | ~20.3 µM and 20.3 µM | 20.30 | 1.85 | 38.64 | – | – | 72.94 | 1.73 | – | 16.2 | –
8 | CCCCCc1cc(O)c2c(c1)oc1c(C)ccc(C(C)C)c12 [CBF, cannabifuran] | – | – | – | 100 | 65.3 | 99.22 (± 1.36) % | – | 1.01 | – | – | –
9 | COc1cc(O)c2c(c1)O[C@H](c1ccccc1)CC2=O [pinostrobin, reference compound] | – | – | – | – | – | 100% | – | – | – | – | –
10 | CCCCCc1cc(O)c2c(c1)OC1(C)CCC3C1C2C3(C)C (centres unmarked) [CBL, cannabicyclol] | 96.1 µM | 96.12 | 8.75 | – | > 80 | – | 54.53 | 1.55 | 5.67 | – | –
